The source of these data is ChEMBL document CHEMBL4359925, “Rational discovery of a highly novel and selective mTOR inhibitor” (Bioorg Med Chem Lett, 2019).

The assay has as its target Serine/threonine-protein kinase mTOR (Homo sapiens, UniProt P42345). Kind of assay: Inhibition of human mTOR measured after 30 mins in presence of ATP by Lanthascreen TR-FRET assay.

As to `O=C(Nc1ccc(-c2nc(N3CCOCC3)c3c(n2)C2(CC2)OC3)cc1)NC1CC1`, the IC50 is under 0.0316 µM.
